Reference: patent US12486254B2, “Uracil derivatives for stimulating read-through of premature termination codons” (Southern Research Institute, priority 2022, dated 2025)

How the values were obtained:
[1] = system: G542X#10-HBE5x5; assay: Read-through of a premature termination codon, G542X#10-HBE5x5 (Table 3); assay type: cell-based; conditions: with G418
Description: (§1) The compounds shown in Table 1 were evaluated for their ability to stimulate read-through of a premature termination codon, and their respective activities are shown in Tables 2 and 3 below.

[2] = system: W134X-CF#14 FRT; assay: Read-through of a premature termination codon, W134X-CF#14 FRT data, with G418; assay type: cell-based; conditions: in presence of G418
Description: as §1

Structure (SMILES)	EC50 [1]	EC50 [2]
CCn1c(=O)c(C(=O)CN(CCNC(=O)OC(C)(C)C)C(C)C)c(N)n(Cc2ccccc2)c1=O [1.26]	–	155 µM
CCn1c(=O)c(C(=O)CN2CCC[C@@H]2C(N)=O)c(N)n(Cc2ccccc2)c1=O [1.34]	–	53 µM
CCN(CC(=O)c1c(N)n(Cc2ccccc2)c(=O)n(CC)c1=O)CC(=O)c1c(N)n(Cc2ccccc2)c(=O)n(CC)c1=O [1.37]	–	12.9 µM
CCn1c(=O)c(C(=O)CN(C)CC(N)=O)c(N)n(Cc2ccccc2)c1=O [1.41]	–	157 µM
NC(=O)C1CCCCN1CC(=O)c1c(N)n(C2CC2)c(=O)n(Cc2ccccc2)c1=O (centres unmarked) [1.46]	–	≥ 100 µM
CCn1c(=O)c(C(=O)CN2CCCC[C@H]2C(N)=O)c(N)n(Cc2ccccc2)c1=O [1.49]	–	59.4 µM
CC1Cc2ccccc2N1CC(=O)c1c(N)n(Cc2ccccc2)c(=O)n(C)c1=O (centres unmarked) [1.61]	–	32.3 µM
CCn1c(=O)c(C(=O)CN2CCCC2c2cccn2C)c(N)n(Cc2ccccc2)c1=O (centres unmarked) [1.63]	–	79.9 µM
CCn1c(=O)c(C(=O)CN2CCCCC2C(=O)OC)c(N)n(Cc2ccccc2)c1=O (centres unmarked) [1.68]	–	19.7 µM
CCn1c(=O)c(C(=O)CN2CCCCC2C(=O)NC(C)C)c(N)n(Cc2ccccc2)c1=O (centres unmarked) [1.70]	–	27.9 µM
CCn1c(=O)c(C(=O)CN(C(C)C)C(C)C(N)=O)c(N)n(Cc2ccccc2)c1=O (centres unmarked) [1.71]	–	70.4 µM
CC(C)Cn1c(=O)c(C(=O)CN2CCCCC2C(N)=O)c(N)n(Cc2ccccc2)c1=O (centres unmarked) [1.75]	–	28 µM
CCN(CC(=O)c1c(N)n(Cc2ccccc2)c(=O)n(CC)c1=O)C(C(N)=O)C(C)C (centres unmarked) [1.77]	–	31.2 µM
CCNC(=O)C1CCCCN1CC(=O)c1c(N)n(Cc2ccccc2)c(=O)n(CC)c1=O (centres unmarked) [1.80]	–	3.89 µM
CCN(CC)C(=O)C1CCCCN1CC(=O)c1c(N)n(Cc2ccccc2)c(=O)n(CC)c1=O (centres unmarked) [1.81]	–	3.92 µM
CCn1c(=O)c(C(=O)CN2CCCCC2C(N)=O)c(N)n(CC2CCCCC2)c1=O (centres unmarked) [1.84]	–	48.2 µM
CCn1c(=O)c(C(=O)CN2CCCCC2C(=O)N2CCCC2)c(N)n(Cc2ccccc2)c1=O (centres unmarked) [1.85]	–	28.1 µM
CCn1c(=O)c(C(=O)CN2CCCCC2C(=O)N(C(C)C)C(C)C)c(N)n(Cc2ccccc2)c1=O (centres unmarked) [1.88]	–	53.8 µM
NC(=O)C1CCCCN1CC(=O)c1c(N)n(Cc2ccccc2F)c(=O)n(Cc2ccccc2F)c1=O (centres unmarked) [1.92]	–	24.2 µM
NC(=O)C1CCCCN1CC(=O)c1c(N)n(Cc2cccc(F)c2)c(=O)n(Cc2cccc(F)c2)c1=O (centres unmarked) [1.95]	–	21.1 µM
CCn1c(=O)c(C(=O)CN2CCCC2C(=O)N(C)C)c(N)n(Cc2ccccc2)c1=O (centres unmarked) [1.98]	–	43.1 µM
CCN(CC)C(=O)C1CCCN1CC(=O)c1c(N)n(Cc2ccccc2)c(=O)n(CC)c1=O (centres unmarked) [1.99]	–	28.3 µM
CN(C)C(=O)C1CCCCN1CC(=O)c1c(N)n(Cc2cccs2)c(=O)n(Cc2cccs2)c1=O (centres unmarked) [1.102]	–	6.2 µM
COc1ccccc1Cn1c(N)c(C(=O)CN2CCCCC2C(N)=O)c(=O)n(Cc2ccccc2OC)c1=O (centres unmarked) [1.110]	–	25 µM
CCn1c(=O)c(C(=O)CN(CC(N)=O)C(C)C)c(N)n(Cc2cccs2)c1=O [1.111]	–	5.19 µM
COc1ccc(Cn2c(N)c(C(=O)CN3CCCCC3C(N)=O)c(=O)n(Cc3ccc(OC)cc3)c2=O)cc1 (centres unmarked) [1.115]	–	31.9 µM

Structure (SMILES)	EC50 [1]	EC50 [2]
COc1cccc(Cn2c(N)c(C(=O)CN3CCCCC3C(N)=O)c(=O)n(Cc3cccc(OC)c3)c2=O)c1 (centres unmarked) [1.116]	–	23.9 µM
CCn1c(=O)c(C(=O)CN2CCCCC2C(N)=O)c(N)n(Cc2cccc(C)c2)c1=O (centres unmarked) [1.119]	–	13.3 µM
CCn1c(=O)c(C(=O)CN2CCCC2C(=O)N2CCCCC2)c(N)n(Cc2ccccc2)c1=O (centres unmarked) [1.122]	–	30.4 µM
CCn1c(=O)c(C(=O)CN2CCCCC2C(=O)NCCc2ccccc2)c(N)n(Cc2ccccc2)c1=O (centres unmarked) [1.136]	–	8.25 µM
CCn1c(=O)c(C(=O)CN2CCCCC2C(N)=O)c(N)n(Cc2ccccc2F)c1=O (centres unmarked) [1.137]	–	5.08 µM
CCn1c(=O)c(C(=O)CN2CCCCC2C(=O)N2CCc3ccccc3C2)c(N)n(Cc2ccccc2)c1=O (centres unmarked) [1.141]	–	12.9 µM
CCn1c(=O)c(C(=O)CN2CCCC[C@@H]2C(=O)NCc2ccccc2F)c(N)n(Cc2ccccc2)c1=O [1.142]	–	13.1 µM
CCn1c(=O)c(C(=O)CN2CCCC[C@@H]2C(=O)N2CCc3ccccc3C2)c(N)n(Cc2ccccc2)c1=O [1.143]	–	6.48 µM
CCn1c(=O)c(C(=O)CN2CCCC[C@@H]2C(=O)NCc2cccc(F)c2)c(N)n(Cc2ccccc2)c1=O [1.144]	–	9.35 µM
CCn1c(=O)c(C(=O)CN2CCCCC2C(N)=O)c(N)n(Cc2ccc(F)cc2F)c1=O (centres unmarked) [1.146]	–	8.5 µM
CCn1c(=O)c(C(=O)CN2CCCCC2C(N)=O)c(N)n(Cc2ccc(F)c(F)c2)c1=O (centres unmarked) [1.147]	–	52.5 µM
CCn1c(=O)c(C(=O)CN(CC(N)=O)C(C)C)c(N)n(Cc2ccc(F)cc2C)c1=O [1.153]	–	64.8 µM
CCn1c(=O)c(C(=O)CN2CCCC[C@@H]2C(=O)NCc2ccc(F)cc2)c(N)n(Cc2ccccc2)c1=O [1.155]	–	3.16 µM
CCn1c(=O)c(C(=O)CN2CCCC[C@@H]2C(=O)NCC(C)C)c(N)n(Cc2ccccc2)c1=O [1.156]	–	11.4 µM
CCn1c(=O)c(C(=O)CN2CCCC[C@@H]2C(=O)NCC(F)(F)F)c(N)n(Cc2ccccc2)c1=O [1.159]	–	4.91 µM
NC(=O)C1CCCCN1CC(=O)c1c(N)n(CC2CCC2)c(=O)n(Cc2ccc(F)cc2)c1=O (centres unmarked) [1.160]	–	28.4 µM
CCn1c(=O)c(C(=O)CN2CCCCC2C(N)=O)c(N)n(Cc2ccc(F)cc2C)c1=O (centres unmarked) [1.161]	–	13.9 µM
CCn1c(=O)c(C(=O)CN2CCCCC2C(N)=O)c(N)n(Cc2ccc(F)c(C)c2)c1=O (centres unmarked) [1.163]	–	8.05 µM
CCn1c(=O)c(C(=O)CN2CCCCC2C(N)=O)c(N)n(Cc2ccc(F)cc2Cl)c1=O (centres unmarked) [1.173]	–	42.1 µM
CCn1c(=O)c(C(=O)CN2CCCC[C@@H]2C(N)=O)c(N)n(Cc2ccc(C(F)(F)F)cc2)c1=O [1.178]	–	21.2 µM
CCn1c(=O)c(C(=O)CN2CCCCC2C)c(N)n(Cc2ccc(F)cc2)c1=O (centres unmarked) [1.200]	–	34.9 µM
CCC(C)C1CCCCN1CC(=O)c1c(N)n(Cc2ccc(F)cc2)c(=O)n(CC)c1=O (centres unmarked) [1.202]	–	5.51 µM
CCn1c(=O)c(C(=O)CN(CCC(N)=O)C(C)C)c(N)n(Cc2ccc(F)cc2)c1=O [1.204]	–	12.5 µM
CCn1c(=O)c(C(=O)CNc2cccc(C(N)=O)c2)c(N)n(Cc2ccc(F)cc2)c1=O [1.208]	–	11.4 µM
CCn1c(=O)c(C(=O)CN2CCCCC2C2CCC2)c(N)n(Cc2ccc(F)cc2)c1=O (centres unmarked) [1.210]	–	6.68 µM

Now from value to compound:

EC50 [1]	EC50 [2]	Structure (SMILES)
≥ 100 µM	–	CCn1c(=O)c(C(=O)CN(CC(N)=O)C(C)C)c(N)n(Cc2ccccc2)c1=O [1.1]
–	174 µM	CCn1c(=O)c(C(=O)CNC2CCCCC2)c(N)n(Cc2ccccc2)c1=O [1.13]
–	43.2 µM	CC(C)N(CC(N)=O)CC(=O)c1c(N)n(Cc2ccccc2)c(=O)n(C)c1=O [1.21]
–	72.3 µM	CCn1c(=O)c(C(=O)CN(CC(N)=O)C(C)(C)C)c(N)n(Cc2ccccc2)c1=O [1.32]
–	11.9 µM	CCn1c(=O)c(C(=O)CN(C)CC(=O)c2c(N)n(Cc3ccccc3)c(=O)n(CC)c2=O)c(N)n(Cc2ccccc2)c1=O [1.38]
–	49.3 µM	Cn1c(=O)c(C(=O)CN2CCN(c3ccccc3F)CC2)c(N)n(Cc2ccccc2)c1=O [1.43]
–	22.7 µM	CC(C)n1c(=O)c(C(=O)CN2CCCCC2C(N)=O)c(N)n(Cc2ccccc2)c1=O (centres unmarked) [1.44]
–	≥ 100 µM	NC(=O)C1CCCCN1CC(=O)c1c(N)n(Cc2ccccc2)c(=O)n(C2CC2)c1=O (centres unmarked) [1.45]
–	≥ 100 µM	CCn1c(=O)c(C(=O)CN2CCN(C(=O)OC(C)(C)C)CC2C(N)=O)c(N)n(Cc2ccccc2)c1=O (centres unmarked) [1.52]
–	49.3 µM	CCn1c(=O)c(C(=O)CN2CCCCC2C(=O)NC(C)(C)C)c(N)n(Cc2ccccc2)c1=O (centres unmarked) [1.79]
–	62.5 µM	CCn1c(=O)c(C(=O)CN2CCCCC2C(=O)Nc2ccccc2)c(N)n(Cc2ccccc2)c1=O (centres unmarked) [1.97]
–	16.5 µM	CC(C)N(CC(N)=O)CC(=O)c1c(N)n(Cc2cccs2)c(=O)n(Cc2cccs2)c1=O [1.100]
–	12.8 µM	NC(=O)C1CCCCN1CC(=O)c1c(N)n(Cc2cccs2)c(=O)n(Cc2cccs2)c1=O (centres unmarked) [1.101]
–	25 µM	Cc1ccccc1Cn1c(N)c(C(=O)CN2CCCCC2C(N)=O)c(=O)n(Cc2ccccc2C)c1=O (centres unmarked) [1.108]
–	7.47 µM	Cc1cccc(Cn2c(N)c(C(=O)CN3CCCCC3C(N)=O)c(=O)n(Cc3cccc(C)c3)c2=O)c1 (centres unmarked) [1.109]
–	18.1 µM	Cc1ccc(Cn2c(N)c(C(=O)CN3CCCCC3C(N)=O)c(=O)n(Cc3ccc(C)cc3)c2=O)cc1 (centres unmarked) [1.114]
–	61.3 µM	CCn1c(=O)c(C(=O)CN2CCCC2C(=O)N2CCOCC2)c(N)n(Cc2ccccc2)c1=O (centres unmarked) [1.121]
–	24.1 µM	CCn1c(=O)c(C(=O)CN2CCCC2C(=O)NCc2ccccc2)c(N)n(Cc2ccccc2)c1=O (centres unmarked) [1.124]
–	17.4 µM	CCn1c(=O)c(C(=O)CN2CCCCC2C(N)=O)c(N)n(Cc2cccc(F)c2)c1=O (centres unmarked) [1.134]
–	13.5 µM	CCn1c(=O)c(C(=O)CN2CCCCC2C(=O)NCc2ccccc2C)c(N)n(Cc2ccccc2)c1=O (centres unmarked) [1.135]
–	68.5 µM	CCn1c(=O)c(C(=O)CN2CCCCC2C(N)=O)c(N)n(Cc2ccc(F)cc2OC)c1=O (centres unmarked) [1.154]
–	19.5 µM	CCn1c(=O)c(C(=O)CN2CCCC[C@@H]2C(=O)NCC(C)(C)C)c(N)n(Cc2ccccc2)c1=O [1.157]
–	≥ 100 µM	CCn1c(=O)c(C(=O)CN(CC(N)=O)C(C)C)c(N)n(Cc2ccc(F)c(OC)c2)c1=O [1.170]
–	10.1 µM	CCOc1ccc(C(C)NCC(=O)c2c(N)n(Cc3ccc(F)cc3)c(=O)n(CC)c2=O)cc1OCC (centres unmarked) [1.179]
–	2.56 µM	CCn1c(=O)c(C(=O)CN2CCCC[C@@H]2C(=O)NCc2ccc(F)cc2)c(N)n(Cc2ccc(F)cc2)c1=O [1.189]
–	47.2 µM	CCn1c(=O)c(C(=O)CN2CCCCC2)c(N)n(Cc2ccc(F)cc2)c1=O [1.193]
–	3.91 µM	CCn1c(=O)c(C(=O)CN2CCCC[C@@H]2C(=O)NCC(F)(F)F)c(N)n(Cc2ccc(F)cc2)c1=O [1.197]
–	9.5 µM	CC[C@H]1CCCCN1CC(=O)c1c(N)n(Cc2ccc(F)cc2)c(=O)n(CC)c1=O [1.199]
–	10.2 µM	CCn1c(=O)c(C(=O)CN(CC(=O)OC)C(C)C)c(N)n(Cc2ccc(F)cc2)c1=O [1.213]
